Results taken from US8735178B2, “Withanolides, probes and binding targets and methods of use thereof” (University of Kentucky Research Foundation, priority 2006, dated 2014).

What was measured:
[1] = molecular target: T1, tetrameric soluble hamster vimentin (Mesocricetus auratus, UniProt P02544); assay: In vitro vimentin filament polymerization (transmission electron microscopy); format: biochemical; conditions: 25 μM, 170 mM NaCl, 1 hour at 37° C.
T1 construct: purchased Vimentin Filament Biochemistry Kit, Denver, Colo; Cytoskeleton is named
Protocol: FIG. 3a depicts tetrameric soluble hamster vimentin polymerized in the presence of 170 mM NaCl by incubation at 37° C. for 1 hour. The protein was fixed with 0.5% glutaraldehyde, stained with uranyl acetate and observed by transmission electron microscopy.
Tetrameric hamster vimentin was subjected to in vitro filament formation assays using vendor-supplied reagents and instructions (Vimentin Filament Biochemistry Kit, Denver, Colo.). Vimentin (0.5 mg/ml) was mixed with WFA (5 μM or 25 μM), DMSO or 12D-WS (25 μM) in filament polymerization buffer (170 mM NaCl final concentration) and incubated for 1 hour at 37° C. Protein was immediately fixed in 0.5% glutarldehyde and stained with uranyl acetate and applied to copper grids for EM staining (University of Kentucky Core Microscopy and Imaging Facilities). Over 100 grids for each treatment were viewed at 80 kV on a FEI Biotwin 12 transmission electron microscope and 25 representative images were collected. The experiment was repeated in entirety.

soluble hamster vimentin = soluble hamster vimentin (Mesocricetus auratus, UniProt P02544); assay: In vitro ligand binding assay (WFA-B labelling, streptavidin-HRP blot); conditions: competitor 1 hour, then 0.3 or 1 μM WFA-B 1 hour
Excerpt: The proteins were fractionated by SDS-PAGE, blotted and biotinylated adduct was detected by streptaviding-HRP with chemiluminescence.

bovine 20S proteasome = bovine 20S proteasome (Bos taurus, UniProt Q32KL2); assay: 20S proteasome enzyme kinetic assay (chymotrypsin-like activity, Suc-LLVY-AMC); format: biochemical
Protocol: The chymotrypsin-like activity was assayed using the fluorogenic peptide substrates Suc-Leu-Leu-Val-Tyr-AMC (Sigma-Aldrich). […] Fluorescence was quantified as arbitrary units and progression curves were plotted for each reaction as a function of time. kobserved/[I] values were obtained using PRISM program by nonlinear least squares fit of the data to the following equation: fluorescence=vst+[(v0−vs)/kobserved][1−exp(−kobserved t)], where v0 and vs are the initial and final velocities, respectively, and kobserved is the reaction rate constant. […] Reactions were performed using inhibitor concentrations that were <100-fold of those of the proteasome assayed.

[2] = test system: MCF-7 cells transfected with human vimentin cDNA; assay: Polyubiquitinated proteins in vimentin-transfected MCF-7 cells (anti-ubiquitin blot); format: cell-based; conditions: 2 μM, not in vector controls
Protocol: Employing the widely used MCF-7 vimentin-deficient model of Bar, H. et al., Forced expression of desmin and desmin mutants in cultured cells: impact of myopathic missense mutations in the central coiled-coil domain on network formation, Exp. Cell. […] MCF-7 cells that lack endogenous IF proteins were transfected with human vimentin cDNA or a vector control and after 24 hours cells were treated with either vehicle or 2 μM WFA for 1 hour. Cell lysates were prepared and equal amounts of protein subjected to SDS-PAGE and protein blots probed with anti-ubiquitin antibody. Blots were re-probed with anti-GAPDH antibody.
MCF-7 cells were transfected with a pCMV6-XL5 vector containing the human vimentin cDNA under CMV promoter according to vendor instructions (Origene). Control samples were transfected with an empty vector (PCMV6-XL4). Transfected cells were allowed to recover for 12 hours and subsequently treated with 2 μM WFA for 18 hours. Equal amounts of protein lysates were then subjected to western blotting and probed with mouse monoclonal antibody against ubiquitin proteins.

[3] = molecular target: purified hamster vimentin (Mesocricetus auratus, UniProt P02544); assay: LC-MS/MS mapping of the residue covalently modified by WFA; format: binding; conditions: tryptic digestion, molecular mass shift of 470
Protocol: Next, to identify the amino acid residue(s) of vimentin covalently modified by WFA, purified hamster vimentin was incubated with WFA and the protein-ligand complexes subjected to tryptic digestion and LC-MS/MS analysis. […] A three-dimensional model of the WFA-vimentin complex was developed using x-ray crystal structures of vimentin and WFA. […] In this simulated model, the C3 and C6 carbons of WFA lie in close proximity to the cysteine residue in the vimentin A-helix (FIG. 2b), permitting a nucleophilic attack by this thiol group on the electrophilic carbon centers (FIG. 2c). Remarkably, the amino acid residues of vimentin (Gln324, Cys328 and Asp 331) that make contact with WFA (FIG. 2c) are identical from fish to mammals, as shown in the table below.

vimentin in HUVECs = assay: Western blot of soluble vimentin in WFA-treated HUVECs; format: cell-based, human
Protocol: (§1) BAECs treated with DMSO (FIGS. 3e, 3g, 3i) or 3 μM WFA (FIGS. 3f, 3h, 3j) for 18 hours were stained for vimentin using a monoclonal anti-vimentin antibody (green) and co-stained with phalloidin-rhodamine (red). The vimentin (FIGS. 3e, 3f) and phalloidin-stained images (FIGS. 3g, 3h), in fluorescence overlap, reveal the presence of numerous cytoplasmic particulate granules that co-stain for vimentin and disrupted F-actin in WFA-treated cells compared to controls (FIGS. 3i, 3j). […] FIG. 3l depicts higher concentrations and longer periods of exposure to WFA (4 hours) cause reduction in levels of the 56 kDa protein (asterisk) and increased abundance of cleavage products of vimentin (arrows).
As it became apparent that vimentin targeting by WFA may initiate signaling events leading to cellular apoptosis, the effect of WFA on soluble tetrameric vimentin was investigated. Using western blot analysis of soluble proteins from HUVECs treated with WFA, dose-dependent (above 2 μM) increases in vimentin cleavage products became detectable by 2 hours after drug treatment (FIGS. 3k and 3l).
After treatments, cells were washed in PBS and extracts having equal amounts of proteins were subjected to SDS-PAGE on 4-20% Tris-glycine gels (BioEpress) and transferred to Immun-Blot PVDF membrane (Bio-Rad) using standard techniques. […]

[4] = test system: embryonic fibroblast cell lines MFT-6 (Vim+/+) and MFT-16 (Vim−/−); assay: Apoptosis by flow cytometry (annexin V-FITC / propidium iodide); format: cell-based, mouse; conditions: 5 μM, 24 hours
Protocol: Referring to FIG. 4c, embryonic fibroblast cell lines derived from vimentin-deficient mice and wild-type littermates were treated with vehicle or 5 μM WFA for 24 hours. Cells were harvested and stained with annexin V-FITC and propidium iodide and extent of apoptosis assessed by flow cytometry. The fold-apoptotis for drug over vehicle-treated samples for each cell line was plotted (n=2 experiments).
To assess the apoptosis activity of WFA, embryonic fibroblast vimentin-deficient cell lines (Vim^−/−; MFT-16) and wild-type (Vim^+/+; MFT-6) cells were treated with 5 μM WFA or an equivalent amount of vehicle (DMSO) for 24 hours at 37° C.-5% CO2 conditions in complete medium. Apoptotic cells were measured by using the VYBRANT™ Apoptosis Assay Kit (Molecular Probes) according to the manufacturer's instructions. Flow cytometric analysis was conducted at the University of Kentucky Core Flow Cytometry Center.

BAECs = assay: Immunostaining of vimentin and actin in BAECs; format: cell-based, bovine; conditions: 3 μM, 18 hours
Protocol: as §1
To further corroborate that vimentin aggregation by WFA treatment is associated with perturbation of the cytoskeleton structure, the drug effects in BAECs were investigated by immunostaining. […] Importantly, these vimentin particulates strongly co-stain for actin (compare FIG. 3h with FIG. 3j), exemplifying the role of the WFA-binding domain in control of cytoskeletal structure through the actin-binding activity of vimentin 2B domain.
After treatments, BAECs were washed with PBS and fixed with 4% paraformaldehyde for 5 minutes. Cells were then permeabilized with 0.1% Triton-X in PBS for 20 minutes at 4° C. and blocked for 30 minutes in 3% BSA to prevent nonspecific binding. […]

[5] = test system: corneal neovascularization; assay: Injury-induced corneal neovascularization assay in mice; format: in vivo, mouse; conditions: 2 mg/kg i.p. daily for 10 days
Excerpt: Since WFA exerts potent angiogenesis inhibitory activity in vivo, drug activity on de novo capillary growth in vimentin deficiency was investigated.
Vimentin homozygous-deficient mice (vim^−/−) and vimentin-heterozygous-deficient mice (vim^+/−) in the 129/Svev background were obtained from David Markovitz (University of Michigan Medical Center) and breeding colonies established at the University of Kentucky. All mice were housed in specific pathogen-free cages in designated lab animal housing facilities. Age-matched littermates were genotyped by polymerase chain reaction, as described, and vim^−/− and vim^+/+ mice were employed for corneal vascularization experiments. In brief, mice between 4-6 weeks of age were anesthetized by intraperiteoneal injection (i.p.) of ketamine and xylazine. Corneas were topically anesthetized by application of proparacain drop and 1 microliter drop of dilute 0.1 M sodium hydroxide was applied for 1 minute. […] Upon recovery from anesthesia, mice were replaced in cages and monitored by trained personnel for resumption of normal activity. […] Fluorescence was quantified by importing images in NIH ImageJ, as taught by Ambati, B. K. et al., Sustained inhibition of corneal neovascularization by genetic ablation of CCR5, Invest. […]

[6] = molecular target: T2, 56 kDa protein (vimentin) in HUVECs (Homo sapiens, UniProt P08670); assay: WFA-B labelling of proteins in HUVECs (streptavidin-HRP blot); format: binding; conditions: WFA-B 2 hours, WFA-competitive
T2 construct: host or cells: HUVECs
Protocol: LC-MS/MS characterization of this protein identified the 56 kDa protein as vimentin (27% protein coverage), an IF protein that is abundant in mesenchymal cells. To further support that vimentin is bound by WFA-B in vivo, HUVECs were treated with WFA-B in the presence and absence of unconjugated WFA, and total cellular lysates were gel-fractionated and protein blots probed with streptavidin-HRP. […] This experiment was conducted using cells preincubated with DMSO or WFA for 30 minutes and subsequently with WFA-B for 2 hours. Soluble proteins extracted in 1% Triton X-100 were fractionated by SDS-PAGE and blotted. This blot, as well as those of FIGS. 1d and 1e, were developed with Streptavidin-HRP. Biotin label is incorporated in this 56 kDa protein in a WFA-competitive manner.
As shown in the blot of FIG. 1d, WFA-B binds vimentin in HUVECs. The blot of FIG. 1d was produced using cell cultures preincubated with DMSO (Veh) or with 5 μM WFA or 1 μM (WFA*) for 30 minutes and subsequently with 5 μM WFA-B for 2 hours.

Chain of soluble hamster vimentin (P02544 whole entry): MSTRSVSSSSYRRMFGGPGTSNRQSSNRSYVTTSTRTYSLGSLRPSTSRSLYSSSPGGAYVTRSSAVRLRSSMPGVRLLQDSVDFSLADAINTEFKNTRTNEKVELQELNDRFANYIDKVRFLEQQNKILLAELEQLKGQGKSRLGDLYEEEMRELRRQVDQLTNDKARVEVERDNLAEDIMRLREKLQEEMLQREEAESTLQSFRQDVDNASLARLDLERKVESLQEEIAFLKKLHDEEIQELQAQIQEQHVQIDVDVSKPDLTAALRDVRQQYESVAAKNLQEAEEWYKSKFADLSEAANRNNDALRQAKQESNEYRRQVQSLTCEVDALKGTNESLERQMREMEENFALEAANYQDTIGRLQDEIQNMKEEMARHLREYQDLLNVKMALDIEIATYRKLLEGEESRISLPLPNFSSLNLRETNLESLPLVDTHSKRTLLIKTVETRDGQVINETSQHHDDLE
T1 sequence (P02544 2-465 limits assumed): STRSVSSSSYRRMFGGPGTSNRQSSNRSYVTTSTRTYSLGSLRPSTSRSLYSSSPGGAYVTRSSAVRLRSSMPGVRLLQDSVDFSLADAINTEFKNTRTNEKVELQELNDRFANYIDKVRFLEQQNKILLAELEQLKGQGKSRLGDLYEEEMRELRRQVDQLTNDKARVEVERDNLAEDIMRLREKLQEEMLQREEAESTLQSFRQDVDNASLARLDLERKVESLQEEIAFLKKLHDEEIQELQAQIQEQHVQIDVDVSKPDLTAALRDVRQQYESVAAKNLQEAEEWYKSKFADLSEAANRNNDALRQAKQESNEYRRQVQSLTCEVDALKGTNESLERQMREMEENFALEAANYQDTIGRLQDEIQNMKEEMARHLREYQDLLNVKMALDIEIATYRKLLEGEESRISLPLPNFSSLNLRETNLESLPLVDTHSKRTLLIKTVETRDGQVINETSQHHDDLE
Chain of purified hamster vimentin (P02544 whole entry): as the sequence (P02544 whole entry) above
T2 sequence (P08670 whole entry): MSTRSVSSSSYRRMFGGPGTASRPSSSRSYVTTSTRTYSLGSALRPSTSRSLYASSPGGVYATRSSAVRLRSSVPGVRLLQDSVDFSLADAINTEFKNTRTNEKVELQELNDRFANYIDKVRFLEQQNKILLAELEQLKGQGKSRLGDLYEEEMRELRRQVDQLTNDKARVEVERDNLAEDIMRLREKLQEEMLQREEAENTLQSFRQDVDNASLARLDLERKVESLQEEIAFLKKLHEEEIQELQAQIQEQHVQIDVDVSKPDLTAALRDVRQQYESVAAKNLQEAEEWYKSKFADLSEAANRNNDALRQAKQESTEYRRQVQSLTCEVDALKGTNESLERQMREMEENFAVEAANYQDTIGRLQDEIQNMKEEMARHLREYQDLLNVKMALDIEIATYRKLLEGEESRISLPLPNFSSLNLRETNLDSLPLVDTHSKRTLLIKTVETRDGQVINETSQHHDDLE

inhibition of the 20S proteasome's major catalytic function (bovine 20S proteasome; 10 μM)	Kobs/[I], efficiency of inactivation (bovine 20S proteasome; WFA 0.5-10 μM, epoxomicin 10-75 nM) [M^−1S^−1]	covalent modification of cysteine residue at position 327 [3]	SMILES	effect on vimentin polymerization [1]	in vitro binding to vimentin (soluble hamster vimentin)	levels of polyubiquitinated proteins [2]	concentration giving dose-dependent increases in vimentin cleavage products (vimentin in HUVECs; detectable by 2 hours)	rate of apoptosis, wild-type cells versus vimentin-deficient cells [4] [fold]	vimentin filament phenotype (BAECs)	inhibition of neovascularization ([5]; vimentin-null mice, n=10, P=0.005) [%]	inhibition of neovascularization ([5]; wild-type mice, n=8, P=0.002) [%]	effect on full-length vimentin isoforms (two-dimensional western blot) (vimentin in HUVECs; data not shown)	binding to 56 kDa protein in cells [6]
–	–	–	CC1=C(CO)C(=O)O[C@@H]([C@@H](C)[C@H]2CC[C@H]3[C@@H]4[C@@H]5O[C@@H]5[C@@]5(O)CC=CC(=O)[C@]5(C)[C@H]4CC[C@]23C)C1 [12-D WS]	does not disrupt vimentin polymerization	lack of in vitro binding activity	–	–	–	–	–	–	–	–
minimally inhibits	340±80	uniquely modified by WFA	CC1=C(CO)C(=O)O[C@@H]([C@@H](C)[C@H]2CC[C@H]3[C@@H]4C[C@H]5O[C@]56[C@@H](O)C=CC(=O)[C@]6(C)[C@H]4CC[C@]23C)C1 [WFA, Withaferin A]	produces extensive filamentous aggregates	–	increases levels of polyubiquitinated proteins	above 2 μM	7	condensation of vimentin filaments around the perinuclear region	29	73	–	–
–	–	–	CC1=C(COC(=O)CNC(=O)CCCCCNC(=O)CCCCCNC(=O)CCCCC2SCC3NC(=O)NC32)C(=O)OC([C@@H](C)C2CCC3C4C[C@H]5O[C@]56C(O)C=CC(=O)[C@]6(C)C4CC[C@@]32C)C1 (stereo partly drawn) [WFA-B, WFA-Gly-LC-LC-biotin]	–	bound by WFA-B in a WFA-competitive manner	–	–	–	–	–	–	causes several full-length (˜53-56 kDa) isoforms of vimentin to disappear	binds to the 56 kDa protein in HUVECs
